Measurements reported in patent US7972815B2, “Method of producing sugar chain using human G4 polypeptide” (Kyowa Hakko Kirin Co., Ltd., priority 1999, dated 2011).

How the values were obtained:
Format in all cases: biochemical
[1] = target: T1, β1,3-N-acetylglucosaminyl transferase (G4) (Homo sapiens, UniProt Q9Y2A9, R328H); assay: Substrate specificity of G4 with pyridylaminated oligosaccharides; settings: for Relative activity (%): pyridylaminated substrate 50 μmol/l, 37° C., 14.5 hours, activity on LNnT defined as 100%
T1 construct: made in house; host or cells: Sf21 insect cells infected with recombinant baculovirus from pVL1393-F2G4
T1 sequence (Q9Y2A9 38-372 R328H): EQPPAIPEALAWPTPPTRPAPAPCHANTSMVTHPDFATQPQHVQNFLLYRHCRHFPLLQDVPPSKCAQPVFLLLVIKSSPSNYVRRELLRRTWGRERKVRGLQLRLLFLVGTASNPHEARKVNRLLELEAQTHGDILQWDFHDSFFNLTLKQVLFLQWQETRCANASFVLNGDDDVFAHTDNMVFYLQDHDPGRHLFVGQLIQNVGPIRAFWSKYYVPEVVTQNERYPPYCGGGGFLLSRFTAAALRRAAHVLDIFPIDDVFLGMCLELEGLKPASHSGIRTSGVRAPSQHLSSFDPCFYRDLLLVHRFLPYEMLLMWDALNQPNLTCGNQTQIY
Description: Examination on the substrate specificity of a β1,3-N-acetylglucosaminyl transferase (G4) was carried out by using the FLAG peptide-fused G4 polypeptide produced as a secreted form in Example 10.
(§1) The method shown in Example 8 was used as the activity measuring method. Specifically, after the reaction at 37° C. for 14.5 hours in 30 μl of an assay solution [200 mmol/l of MOPS (pH 7.5), 20 mmol/l of UDP-GlcNAc (SIGMA), 20 mmol/l of MnCl2, 50 μmol/l of pyridylaminated sugar chain substrate and 15 μl of the above eluate], products were detected by HPLC. As substrates, LNnT, lacto-N-tetraose (Galβ1-3GlcNAcβ1-3Galβ1-4Glc, hereinafter referred to as “LNT”), lacto-N-fucopentaose II (Galβ1-3(Fucα1-4)GlcNAcβ1-3Galβ1-4Glc, hereinafter referred to as “LNFP-II”), lacto-N-fucopentaose III (Galβ1-4(Fucα1-3)GlcNAcβ1-3Galβ1-4Glc, hereinafter referred to as “LNFP-III”), lacto-N-fucopentaose V (Galβ1-3GlcNAcβ1-3Galβ1-4(Fucα1-3)Glc, hereinafter referred to as “LNFP-V”) and lacto-N-difucohexaose II (Galβ1-3(Fucα1-4)GlcNAcβ1-3Galβ1-4(Fucα1-3)Glc, hereinafter referred to as “LNDFH-II”) (all manufactured by Oxford Glycosystems) were used after fluorescently labeling them with aminopyridine. Fluorescence labeling of these substrates were carried out in accordance with the usual method [Agric. Biol. Chem., 54, 2169 (1990)].
(§2) For each substrate, the reaction was carried using the assay solution with or without UDP-GlcNAc (sugar donor), and then HPLC was carried out and peaks appeared only in the assay solution containing UDP-GlcNAc were defined as products.
(§3) The assay solution after completion of the reaction was treated at 100° C. for 5 minutes and then centrifuged at 10,000×g for 5 minutes, and a portion (5 μl) of the thus obtained supernatant was applied to HPLC.
(§4) The HPLC was carried out by using TSK-gel ODS-80Ts column (4.6×300 mm; Tosoh); 0.02 mol/l ammonium acetate buffer (pH 4.0) was used as the eluate at an elution temperature of 50° C. and at a flow rate of 0.5 ml/min.
(§5) Products were detected by using a fluorescence spectrum photometer FP-920 (JASCO Corporation) (excitation wavelength 320 nm, radiation wavelength 400 nm).

[2] = target: T2, β1,3-N-acetylglucosaminyl transferase (G3) (Homo sapiens, UniProt Q9NY97); assay: Substrate specificity of G3 with pyridylaminated oligosaccharides; settings: 2 hours; for Relative activity (%): pyridylaminated substrate, 37° C., activity on LNnT defined as 100%
T2 construct: made in house; host or cells: Sf21 insect cells infected with recombinant baculovirus from pVL1393-F2G3
T2 sequence (Q9NY97 31-397): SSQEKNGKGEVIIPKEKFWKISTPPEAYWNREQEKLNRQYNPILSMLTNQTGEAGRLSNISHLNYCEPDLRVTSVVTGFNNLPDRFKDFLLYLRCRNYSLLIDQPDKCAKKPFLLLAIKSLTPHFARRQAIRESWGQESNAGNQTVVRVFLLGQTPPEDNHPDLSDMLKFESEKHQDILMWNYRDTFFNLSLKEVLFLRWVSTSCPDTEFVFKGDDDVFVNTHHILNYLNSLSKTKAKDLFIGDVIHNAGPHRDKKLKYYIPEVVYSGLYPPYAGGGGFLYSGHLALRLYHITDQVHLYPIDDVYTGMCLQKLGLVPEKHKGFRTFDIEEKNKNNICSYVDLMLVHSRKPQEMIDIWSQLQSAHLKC
Description: as §1, §2, §3, §4, §5
Substrate specificity of a β1,3-N-acetylglucosaminyl transferase (G3) was examined using the FLAG peptide-fused G3 polypeptide purified in Example 14.
Substrate specificity of the FLAG peptide-fused G3 polypeptide was examined by the method shown in Example 11(1). The reaction was carried out at 37° C. for 2 hours.

[3] = target: T2, β1,3-N-acetylglucosaminyl transferase (G3); assay: Substrate specificity of G3 with unlabeled oligosaccharides; settings: 2 hours; for Relative activity (%) G3: unlabeled substrate, 37° C., activity for LNnT defined as 100%
Description: The reaction using the glycosyltransferase was carried out as follows. The reaction was carried out at 37° C. for 16 hours in 40 μl of an assay solution [50 mmol/l MOPS (pH 7.5), 5 mmol/l UDP-GlcNAc (SIGMA), 5 mmol/l MnCl2, […] and 10 μl of the above eluate]. Next, the reaction solution was treated at 100° C. for 5 minutes and then centrifuged at 10,000×g for 20 minutes to obtain the supernatant, and a portion thereof was analyzed using HPAE/PAD (High Performance Anion Pulsed Amperometoric Detection; manufactured by DIONEX). The specific method was carried out in the usual way [Anal. Biochem., 189, 151 (1990), J. Biol. Chem., 273, 433 (1998)].
As substrates, the following unlabeled oligosaccharides were used: lactose (Galβ1-4Glc), N-acetyllactosamine (Galβ1-4GlcNAc, hereinafter referred to as “LacNAc” in some cases), LNnT, LNT and lacto-N-neohexaose (Galβ1-4GlcNACβ1-3Galβ1-4GlcNAcβ1-3Galβ1-4Glc, hereinafter referred to as “LNnH”).
as §2
In identifying the product, coincidence of its elution time with that of a standard sugar chain was used as the index. As the standard sugar chains, GlcNAcβ1-3Galβ1-4Glc, GlcNAcβ1-3Galβ1-4GlcNAc and GlcNAcβ1-3Galβ1-4GlcNAcβ1-3Galβ1-4Glc were used.
Substrate specificity of the FLAG peptide-fused G3 polypeptide was examined by the method shown in Example 11(2). The enzyme reaction was carried out at 37° C. for 2 hours.

[4] = pyridylaminated LNnT as substrate

| conversion ratio of the substrate into the product [1, 4] [%] | Relative activity (%) [1] [%] | conversion efficiency of the substrate into the product [2, 4] [%] | Relative activity (%) [2] [%] | conversion ratio of a substrate into the product ([3]; unlabeled LNnT as substrate) [%] | Relative activity (%) G3 [3] [%] | Compound |
| --- | --- | --- | --- | --- | --- | --- |
| 12.9 | 100 | 82.5 | 100 | 4.6 | 100 | CC(=O)N[C@H]1[C@H](O[C@H]2[C@@H](O)[C@@H](CO)O[C@@H](O[C@H]3[C@H](O)[C@@H](O)C(O)O[C@@H]3CO)[C@@H]2O)O[C@H](CO)[C@@H](O[C@@H]2O[C@H](CO)[C@H](O)[C@H](O)[C@H]2O)[C@@H]1O (mixture of isomers) [LNnT, lacto-N-neotetraose] |
|  | 84.5 |  | 3.7 |  | 27 | CC(=O)N[C@H]1[C@H](O[C@H]2[C@@H](O)[C@@H](CO)O[C@@H](O[C@H]3[C@H](O)[C@@H](O)C(O)O[C@@H]3CO)[C@@H]2O)O[C@H](CO)[C@@H](O)[C@@H]1O[C@@H]1O[C@H](CO)[C@H](O)[C@H](O)[C@H]1O (stereo partly drawn) [LNT, lacto-N-tetraose] |
